Experimental data as given in patent US20180214582A1, “METHOD FOR DIAGNOSING CARCINOMAS USING IRGD AND MAGENTIC RESONANCE TOMOGRAPHY (MRT)” (Albrecht Piiper, priority 2015, published 2018).

How the values were obtained:
HCCs in TGFα/c-myc mice [1] = assay: Gd-DTPA-enhanced MRI with and without peptide in TGFα/c-myc mice with HCC; format: in vivo; conditions: for contrast of HCC tumors in the liver in Gd-DTPA-enhanced MRI: T1-weighted 3T MRI
From the text: (§1) Male TGFα/c-myc bitransgenic mice were created by crossing homozygous metallothionein/TGFα and albumin/c-myc single-transgenic mice in a CD13B6CBA background as described (Murakami et al., 1993; Haupenthal et al., 2012). After weaning, the animals were given ZnCl2 by way of the drinking water to induce tumors via the expression of TGFα. Starting at an age of 20 weeks, the TGFα/c-myc animals underwent a Primovist-enhanced MRI scan in a 3T MRI Scanner (Siemens 113 Magnetom Trio, Siemens Medical Solutions) as described (Haupenthal et al., 2012; Watcharin et al., 2015; Korkusuz et al., 2013).
So as to determine the effect of iRGD on the Gd-DTPA-enhanced MRI in the HCC, TGFα/c mice with HCC according to a prior Gd-EOB-DTPA (Primovist)-enhanced MRI one week earlier, or nude mice with HepG2 or Huh7 tumors, were included in the experiments. The mice were anesthetized by way of intraperitoneal injection of ketamine (70 mg/kg body weight) and xylazine (10 mg/kg body weight), followed by a basal T1-weighted MRI. Directly thereafter, a Gd-DTPA-enhanced MRI was conducted (Haupenthal et al., 2012). Twelve to 24 hours later, either iRGD or the RGD control peptide was injected ([…] each via the tail vein), followed by a basal and a Gd-DTPA-enhanced MRI (Watcharin et al., 2015). For the quantitative analysis of the MRI data, the signal intensities in user defined “regions of interest” (ROI) were used (Korkusuz et al., 2013). ROIs were placed in the liver and in the tumor tissue. The changes in the signal intensities were ascertained by subtraction of the pre-contrast value from those after the administration of Gd-DTPA. The changes in the signal intensities of the tumors and the livers due to iRGD or the RGD control peptide were indicated as multiples of the values of the Gd-DTPA MRI with prior injection of PBS.
It was examined whether the tumor-permeabilizing effect of iRGD can already be detected by a Gd-DTPA-enhancing MRI, a widely used clinical procedure, in TGFα/c-myc mice with endogenous HCC. For this purpose, TGFα/c-myc mice with HCCs discovered one week prior according to Gd-EOB-DTPA-enhanced MRI were used. […] 12 to 24 hours later, the mice were administered iRGD or the RGD control peptide, followed by another Gd-DTPA-enhanced MRI.
TGFα/c-myc mice in which HCCs had been detected one week prior by way of Gd-EOB-DTPA-enhanced MRI were anesthetized, followed by a basal T1-weighted MRI, and a Gd-DTPA-enhanced MRI directly thereafter. 12 to 24 hours later, either iRGD or RGD control peptide (con. peptide) was injected (100 μL each via the tail vein, 4 mmol/kg) into the same animals, followed by a basal MRI and a Gd-DTPA-enhanced MRI. A. Gd-DTPA-enhanced MRI of TGFα/c-myc mice with HCC (left), followed by an injection of iRGD and another Gd-DTPA-enhanced MRI 12 hours thereafter. Arrows mark the tumor.
B. quantitative analysis of the MRI data. Values are mean values±SD; n=12.

HCCs in TGFα/c-myc mice [2] = assay: Evans blue accumulation after i.v. peptide in TGFα/c-myc mice with endogenous HCC; format: in vivo; conditions: peptide 4 mmol/kg i.v., then Evans blue; for concentration of Evans blue in normal tissue (liver, kidney, spleen and lung): photometry; for Evans blue quantity in the tumors compared to HCCs of mice injected with PBS or control peptide: tissues 30 minutes later, photometric quantification
From the text: as §1
So as to examine whether intravenously applied iRGD increases the permeability of the HCC, the effect of intravenously applied iRGD on the levels of co-injected Evans blue, an albumin-binding dye, in TGFα/c-myc mice with endogeneous HCCs according to a Gd-EOB-DTPA-enhanced MRI were analyzed. For this purpose, the mice with HCC were intravenously injected with iRGD, an RGD control peptide without a CendR motif, or PBS, followed by the injection of Evans blue […]. Another 30 minutes later, the animals were terminally perfused.
TGFα/c-myc mice with MRI-verified HCCs (A) or mice with subcutaneous HepG2 (B) or Huh7 xenotransplants (C) were intravenously injected with 4 mmol/kg iRGD or control peptide (each in PBS), or PBS was injected alone, followed by an injection of EB 5 minutes later. The tissues were harvested after another 30 minutes. The EB accumulation in the tissues was determined by way of photometry. The data involves mean values±SD; n=4 to 5. Asterisks indicate a significant difference (* P<0.05; […]; *** P<0.001). n.s., not significant.

HCCs in TGFα/c-myc mice [3] = assay: Doxorubicin tissue concentration after i.v. peptide in TGFα/c-myc mice with HCC; format: in vivo; conditions: peptide 4 mmol/kg i.v.; for doxorubicin level in the HCCs: doxorubicin 20 mg/kg iv 10 minutes later, tissues 30 minutes later; for levels of doxorubicin in the organs: doxorubicin 20 mg/kg iv, FIG. 2A
From the text: as §1
Furthermore, the effect of iRGD on the tissue concentrations of intravenously applied doxorubicin, a tumor therapeutic agent that can be detected due to the inherent fluorescence in tissue sections and tissue extracts, in the TGFα/c-myc and in the HepG2 xenotransplant HCC mouse model was analyzed. […] The control peptide had no effects on the doxorubicin level in any of the tissues.
TGFα/c-myc mice with radiologically verified HCCs (A) or nude mice with subcutaneous HepG2 xenotransplants (B) were intravenously injected with 4 mmol/kg iRGD or control peptide (each in PBS), or treated with PBS alone, followed by a doxorubicin (20 mg/kg iv) injection 10 minutes later. The tissues were collected another 30 minutes later and stored, and the doxorubicin concentration was determined. The values are mean values±SD; n=5 to 6. Asterisks indicate a significant difference (**P<0.01; ***P<0.001).

HepG2 xenotransplants [4] = assay: Doxorubicin tissue concentration after i.v. peptide in nude mice with HepG2 xenotransplants; format: in vivo; conditions: nude mice with subcutaneous HepG2 xenotransplants; peptide 4 mmol/kg i.v., doxorubicin 20 mg/kg iv
Protocol: HepG2- and Huh7 cells (ATCC and RIKEN BioResource Center) were cultivated in DMEM with 10% FBS and penicillin/streptomycin (Life Technologies). 5 million cells in 100 μL PBS were injected into the sides of NMRI Foxn1 nude mice (Harlan Laboratories B.V.). Four weeks later the mice were assigned to the test groups. Furthermore, the effect of iRGD on the tissue concentrations of intravenously applied doxorubicin, a tumor therapeutic agent that can be detected due to the inherent fluorescence in tissue sections and tissue extracts, in the TGFα/c-myc and in the HepG2 xenotransplant HCC mouse model was analyzed. […] The control peptide had no effects on the doxorubicin level in any of the tissues. TGFα/c-myc mice with radiologically verified HCCs (A) or nude mice with subcutaneous HepG2 xenotransplants (B) were intravenously injected with 4 mmol/kg iRGD or control peptide (each in PBS), or treated with PBS alone, followed by a doxorubicin (20 mg/kg iv) injection 10 minutes later. The tissues were collected another 30 minutes later and stored, and the doxorubicin concentration was determined. The values are mean values±SD; n=5 to 6. Asterisks indicate a significant difference (**P<0.01; ***P<0.001).

Huh7 xenotransplants [5] = assay: Gd-DTPA-enhanced MRI with and without peptide in nude mice with Huh7 xenotransplants; format: in vivo; conditions: p=0.0081
Protocol: (§2) HepG2- and Huh7 cells (ATCC and RIKEN BioResource Center) were cultivated in DMEM with 10% FBS and penicillin/streptomycin (Life Technologies). 5 million cells in 100 μL PBS were injected into the sides of NMRI Foxn1 nude mice (Harlan Laboratories B.V.). Four weeks later the mice were assigned to the test groups.
(§3) So as to determine the effect of iRGD on the Gd-DTPA-enhanced MRI in the HCC, TGFα/c mice with HCC according to a prior Gd-EOB-DTPA (Primovist)-enhanced MRI one week earlier, or nude mice with HepG2 or Huh7 tumors, were included in the experiments. The mice were anesthetized by way of intraperitoneal injection of ketamine (70 mg/kg body weight) and xylazine (10 mg/kg body weight), followed by a basal T1-weighted MRI. Directly thereafter, a Gd-DTPA-enhanced MRI was conducted (Haupenthal et al., 2012). Twelve to 24 hours later, either iRGD or the RGD control peptide was injected ([…] each via the tail vein), followed by a basal and a Gd-DTPA-enhanced MRI (Watcharin et al., 2015). For the quantitative analysis of the MRI data, the signal intensities in user defined “regions of interest” (ROI) were used (Korkusuz et al., 2013). ROIs were placed in the liver and in the tumor tissue. The changes in the signal intensities were ascertained by subtraction of the pre-contrast value from those after the administration of Gd-DTPA. […]

HepG2 tumors = assay: Gd-DTPA-enhanced MRI with and without peptide in nude mice with HepG2 xenotransplants; format: in vivo
Protocol: as §2, §3

Huh7 xenotransplants [6] = assay: Evans blue accumulation after i.v. peptide in nude mice with Huh7 xenotransplants; format: in vivo, NMRI Foxn1 nude mice; conditions: subcutaneous Huh7 xenotransplants, peptide 4 mmol/kg i.v., p<0.001
Protocol: as §2
(§4) So as to examine whether the tumor-permeabilizing effect of iRGD also occurs in HCC nude mice tumor models, the effect of intravenously applied iRGD on the level of co-applied Evans blue in nude mice which had HepG2 or Huh7 xenotransplants was analyzed. iRGD effectuated an increase in the concentrations of co-applied Evans blue in HepG2-xenotransplanted and Huh-7-xenotransplanted tumors by a factor of 3.4 (p≤0.002) (in HepG2 tumors) and 2.6-fold in Huh7 tumors (p<0.001) compared to the corresponding tumors of nude mice injected with PBS and the control peptide (FIGS. 1B and C).
(§5) TGFα/c-myc mice with MRI-verified HCCs (A) or mice with subcutaneous HepG2 (B) or Huh7 xenotransplants (C) were intravenously injected with 4 mmol/kg iRGD or control peptide (each in PBS), or PBS was injected alone, followed by an injection of EB 5 minutes later. The tissues were harvested after another 30 minutes. The EB accumulation in the tissues was determined by way of photometry. The data involves mean values±SD; n=4 to 5. […]

HepG2 xenotransplants [7] = assay: Evans blue accumulation after i.v. peptide in nude mice with HepG2 xenotransplants; format: in vivo, NMRI Foxn1 nude mice; conditions: subcutaneous HepG2 xenotransplants, peptide 4 mmol/kg i.v., p≤0.002
Protocol: as §2, §4, §5

4T1 tumor = assay: Gd-DTPA-enhanced MRI with and without peptide in syngeneic 4T1 breast cancer mouse model; format: in vivo; conditions: BALB/c mice, 4T1 cells in mammary gland no. 4; peptide 4 mmol/kg; p<0.05
Protocol: 4T1 cells (ATCC) were cultivated in RPMI 1640 medium with 10% FBS and penicillin/streptomycin (Life Technologies). BALB/c mice were injected with 2.5×10^4 4T1 cells into mammary gland no. 4 of the mouse, and the tumors were allowed to grow for two weeks.
Furthermore, it was examined to what extent iRGD also influences the MRI signal of the tumor in the Gd-DTPA-enhanced MRI in the syngeneic 4T1 breast cancer mouse model.
Effect of iRGD and the RGD control peptide on the increase in the signal intensity in the Gd-DTPA-enhanced MRI in the liver and in the 4T1 tumors in BALB/c mice. BALB/c mice were injected with 2.5×10^4 4T1 cells into mammary gland no. 4 of the mouse. Two weeks later, the mice were anesthetized, followed by a basal T1-weighted MRI, and a Gd-DTPA-enhanced MRI directly thereafter. 12 to 24 hours later, either iRGD or RGD control peptide (con. peptide) was injected (100 μL each via the tail vein, 4 mmol/kg) into the same animals, followed by a basal MRI and a Gd-DTPA-enhanced MRI. The data was quantitatively analyzed. Values are mean values±SD; n=6.

| Compound | signal intensities in normal organs in Gd-DTPA-enhanced MRI (HCCs in TGFα/c-myc mice [1]) | contrast of HCC tumors in the liver in Gd-DTPA-enhanced MRI (HCCs in TGFα/c-myc mice [1]) | concentration of Evans blue in normal tissue (liver, kidney, spleen and lung) (HCCs in TGFα/c-myc mice [2]) | Evans blue quantity in the tumors compared to HCCs of mice injected with PBS or control peptide (HCCs in TGFα/c-myc mice [2]) | doxorubicin level in the HCCs (HCCs in TGFα/c-myc mice [3]) | levels of doxorubicin in the organs (HCCs in TGFα/c-myc mice [3]) | doxorubicin level in the HCCs (HepG2 xenotransplants) (HepG2 xenotransplants [4]) | rise in signal intensity of the tumors in Gd-DTPA-enhanced MRI (Huh7) (Huh7 xenotransplants [5]) [fold] | signal intensity of the tumors in Gd-DTPA-enhanced MRI (HepG2) (HepG2 tumors; p=0.0311) | rise in signal intensity of the tumors in Gd-DTPA-enhanced MRI, other HCC mouse models (HepG2) (HepG2 tumors; stated for 'the other HCC mouse models') [fold] | increase in concentration of co-applied Evans blue in Huh7 tumors vs PBS and control peptide (Huh7 xenotransplants [6]) [fold] | increase of signal intensities in the tumors in Gd-DTPA-enhanced MRI vs RGD control peptide or PBS (HCCs in TGFα/c-myc mice [1]; peptide 4 mmol/kg via tail vein, quantitative densitometric analysis, n=12) [fold] | increase in concentration of co-applied Evans blue in HepG2 tumors vs PBS and control peptide (HepG2 xenotransplants [7]) [fold] | MRI signal in the Gd-DTPA-enhanced MRI in the 4T1 tumor (4T1 tumor) |
| --- | --- | --- | --- | --- | --- | --- | --- | --- | --- | --- | --- | --- | --- | --- |
| CRGDDGPKC [RGD control peptide, RGD control peptide without a CendR motif; acquired from GenScript, reference compound] | no effects | negatively contrasted | had no impact | had no effect | no effects | no effects | no effects |  |  |  |  |  |  |  |
| CRGDKGPDC [iRGD] | no effects | contrasting positively | had no impact | three-fold increase | increase in the doxorubicin level | no effects | increase in the doxorubicin level | 1.5 | rise in the signal intensity | ≤ 2 | 2.6 | 2 | 3.4 | significant increase in the MRI signal |
| O=C([O-])CN(CCN(CC(=O)[O-])CC(=O)O)CCN(CC(=O)[O-])CC(=O)O.[Gd+3] [Gd-DTPA, reference compound] |  | highly negative contrasts |  |  |  |  |  |  |  |  |  |  |  |  |
